Source: US12102620B2, “Combination therapy for the treatment of mastocytosis” (Deciphera Pharmaceuticals, LLC, priority 2018, dated 2024)
“Also recorded” adds a separate entry of the source.

Experiments:
Assay type in all cases: cell-based
[1] = tested on: N-ras G12D-transfected HMC1.2 cells; assay: Colony outgrowth after drug removal, N-ras G12D transfected cells; settings: all concentrations, 5 days after drug removal
Excerpt: (§1) Drug treatments were removed and colony outgrowth of viable cells was monitored after 5 or 13 additional days.
(§2) Drug treatments were removed and colony outgrowth of viable cells was monitored after 5 or 10 additional days.

[2] = tested on: EV-transfected HMC1.2 mast cells; assay: Colony outgrowth after drug removal, empty vector transfected cells; settings: all concentrations, 5 days after drug removal
Excerpt: as §1, §2

[3] = tested on: HMC1.2 KIT V560G/D816V mast cell line; assay: Cell proliferation, HMC1.2 KIT V560G/D816V mast cell line; settings: 72 h, read-out: IC50, inhibition of cell proliferation
Method: (§3) Assays were conducted in 96 well plates with 10,000 cells seeded per well.

[4] = tested on: HMC1.1 KIT V560G mast cell line; assay: Cell proliferation, HMC1.1 KIT V560G mast cell line; settings: 72 h, read-out: IC50, inhibition of cell proliferation
Method: as §3

[5] = tested on: HMC1.2 mast cells (KIT D816V); assay: Colony outgrowth in soft agar after drug removal; settings: all concentrations, 10 days treatment, 5 days after drug removal
Excerpt: Drug treatments were removed and colony outgrowth of viable cells was monitored after 5 additional days.

Row | SMILES | colony outgrowth, single agent [1] | colony outgrowth, single agent [2] | IC50 [3] [nM] | IC50 [4] [nM] | colony outgrowth, single agent [5]
1 | CCn1c(=O)c(-c2cc(NC(=O)Nc3ccccc3)c(F)cc2Br)cc2cnc(NC)cc21 [Compound A, 1-[4-bromo-5-[1-ethyl-7-(methylamino)-2-oxo-1,2-dihydro-1,6-naphthyridin-3-yl]-2-fluorophenyl]-3-phenylurea] | colony outgrowth at all concentrations; also recorded: eradication was not observed | colony outgrowth at all concentrations; also recorded: eradication was not observed | – | – | –
2 | CCn1c(=O)c(-c2cc(NC(=O)Nc3ccccc3)c(F)cc2Br)cc2cnc(N)cc21 [Compound B, 1-(5-(7-amino-l-ethyl-2-oxo-1,2-dihydro-1,6-naphthyridin-3-yl)-4-bromo-2-fluorophenyl)-3-phenylurea] | – | – | 61 | 2.3 | colony outgrowth at all concentrations; also recorded: eradication was not observed
3 | Cn1cnc2c(F)c(Nc3ccc(Br)cc3F)c(C(=O)NOCCO)cc21 [binimetinib] | – | – | – | – | colony outgrowth at all concentrations; also recorded: eradication was not observed
4 | O=C(c1ccc(F)c(F)c1Nc1ccc(I)cc1F)N1CC(O)([C@@H]2CCCCN2)C1 [cobimetinib, reference compound] | colony outgrowth at all concentrations; also recorded: eradication was not observed | colony outgrowth at all concentrations; also recorded: eradication was not observed | – | – | colony outgrowth at all concentrations
